Measured values as given in patent US20220347323A1, “Positron Emission Tomography Guided Delivery of Mitochondral Complex I Inhibitors” (priority 2019, published 2022).
Entries after “also recorded” stand apart in the source; their conditions may differ.

What was measured:
[1] = tested on: A549 cells; test: Mitochondrial membrane potential (ΔΨ) by TMRE flow cytometry, A549; format: cell-based, human; conditions: A549, short-term treatment 3 hr
Protocol: Experiments were conducted by analyzing TMRE fluorescence using flow cytometry. […] Cells were resuspended in 0.5 ml DMEM with 5% FBS containing different concentrations of phenformin or oligomycin or FCCP as indicated in figure legends. […] Cells were washed twice in phenol red free DMEM and cellular fluorescence was acquired with a BD LSRII analyzer at UCLA Flow Cytometry Core. Data was analyzed with Flowing Software.

[2] = tested on: A549 cells; test: In vitro 18FBnTP uptake assay, A549; format: cell-based, human; conditions: A549, 1 mM, 3 hr
[3] = tested on: A549 cells; test: Respirometry (Seahorse OCR), A549; format: cell-based, human; conditions: A549, 1 mM, 45 min
Protocol: Experiments were conducted on a Seahorse XF96 Extracellular Flux Analyzer (Agilent Technologies) in order to measure oxygen consumption rate (OCR) and extracellular acidification rate (ECAR). […] On the day of the experiment, assay medium (Seahorse XF Base Medium supplemented with 2 mM L-glutamine, 1mM Pyruvate and 10 mM glucose) was freshly prepared. The cells were washed twice with assay medium and brought to a final volume of 175 μL per well. The XF96 plate was placed in a 37° C. incubator without CO2 for 30 minutes prior to loading the plate into the instrument. Injection of compounds during the assay included: the mitochondrial ATP Synthase inhibitor oligomycin (final concentration of 2 μM); the chemical uncoupler, FCCP (final concentration of 1 μM); and the Complex I inhibitors rotenone (final concentrations 2 μM) and phenformin (final concentration 1 mM) and Complex III inhibitor antimycin A (final concentrations of 2 μM). […] Activity of complex I was measured in permeabilized cells using XF PMP assay where complex I dependent OCR was measured by determining OCR in the presence of pyruvate and malate (as substrates for complex I) before and after addition of rotenone (complex I inhibitor).

[4] = tested on: Kras/Lkb1 lung tumors; test: 18FBnTP PET of lung tumors in Kras/Lkb1 GEMMS before and after treatment; format: in vivo, mouse; conditions: 5 days, vs vehicle
From the text: We performed studies with the genetically engineered mouse model of lung cancer using Kras-Lox-Stop-Lox-G12D; Lkb1 Lox/Lox; Rosa26-Lox-Stop-Lox-Luc mice (KL) as described previously [Ref. 33]. Briefly, lung tumors were induced by intranasal administration of 5×10^5 transduction units of Lenti-PGK-Cre (Cat. #FCT071, Kerafast,) as previously described [Ref. 9, 33]. Lentiviral delivery of Cre recombinase to KL mice leads to near 100% development of lung adenocarcinomas [Ref. 36]. KL mice that were inhaled with LentiCre were used in studies with Phenformin treatment. For studies where mice were imaged with both ^18FBnTP and ^18F-FDG probes, KL mice were inhaled with Adenoviral Cre, which leads to development of both ADC and SCC tumors. For all treatments, KL mice were imaged with ^18FBnTP and sorted into two groups based on tumor maximum percent injected dose per gram (%ID/g) values, so that two groups would have similar maximum %ID/g values. Treatment was initiated on the same day or on the following day after ^18FBnTP imaging. Mice were treated with 125 mg/kg/day phenformin for 5 days or 15 mg/kg/day IACS-010759 for 12 days. The drugs were delivered by oral gavage. All experimental procedures that were performed on mice were approved by the UCLA Animal Research Committee (ARC). Both male and female mice were used in all experiments and no preference in mouse gender was given for any of the studies.
In order to reduce variability between mice imaged with ^18FBnTP, maximum percent injected dose per gram (%ID/g) for each tumor was normalized to maximum %ID/g of heart as indicated in the figures. For waterfall plots in FIG. 2m and FIGS. 8e-8f, we calculated % change in the uptake of the ^18FBnTP probe post-treatment relative to pre-treatment using maximum %ID/g of the tumor that was normalized to maximum %ID/g of the heart for each mouse.

[5] = tested on: Kras/Lkb1 lung tumors; test: Cleaved caspase 3 and Ki67 staining of Kras/Lkb1 tumors; format: in vivo, mouse; conditions: short-term 5 day treatment
Protocol: After the fixation step in 10% neutral buffered formalin overnight, lungs were transferred to 70% ethanol and further processing and embedding was done by the TPCL at UCLA. The following antibodies were used: anti-CK5 (EP1601Y) (abcam, ab52635 1:100), anti-TTF1 (8G7G3/1) (Dako, 1:1000), anti-Ki67 (SP6) (Thermo-Scientific, RM-9106-SO 1:200), anti-Glut1 (alpha-diagnostic, GT11-A, 1:400). Slides were scanned onto a ScanScope AT (Aperio Technologies Inc.). Digital slides were analyzed with Definiens and QuPath software.

[6] = Phenformin quantification in lung tumors by LC/MS; format: in vivo, mouse; conditions: 100-200 mg/kg oral gavage, 5 days, vs vehicle
Protocol: Tumors were homogenized with a Tissue Master (Omni international) in 1 ml chilled 80% Methanol. Tumor suspensions were spun down at 4° C. for 5 min at 17,000g, and the top layer taken as extracted metabolites. The volume equivalent of 1 mg of tumor was transferred into glass vials and the samples were dried with a EZ2-Elite lyophilizer (Genevac). Dried metabolites were re-suspended in 100 μl of 50%:50% acetonitrile (ACN):dH20 solution; 10 μl of these suspensions were injected per analysis. Samples were run on a Vanquish (Thermo Scientific) UHPLC system with mobile phase A (5 mM NH4AcO, pH 9.9) and mobile phase B (ACN). […] The UHPLC was coupled to a Q-Exactive (Thermo Scientific) mass analyzer running in positive mode at 3.5 kV with an MS1 resolution of 70,000. Metabolites were identified using exact mass (MS1), retention time, and fragmentation patterns (MS2) at normalized collision energy (NCE) 35. Quantification was performed via area under the curve (AUC) integration of MS1 ion chromatograms with the MZmine 2 software package. For the quantification of absolute moles of phenformin, one tumor from the vehicle group was selected to provide a representative tumor small molecular matrix. […]

[7] = tested on: A549 and RH2 cells; test: Cell viability of human ADC (A549) and SCC (RH2) cell lines; format: cell-based; conditions: A549 vs RH2, 48 hr, low doses
From the text: (§1) Experiments were repeated twice.

[8] = tested on: mouse adenocarcinoma and squamous cell carcinoma cell lines; test: Cell viability of mouse adenocarcinoma and squamous cell carcinoma cell lines; format: cell-based; conditions: 48 hr, low doses
From the text: as §1

[9] = tested on: Kras/Lkb1 tumors; conditions: cited from earlier work
[10] = tested on: Kras/Lkb1 lung tumors; test: Treatment of Kras/Lkb1 mice, tumor burden; format: in vivo, mouse
[11] = tested on: Kras/Lkb1 lung tumors; test: Ki67 staining of TTF1+ and CK5+ Kras/Lkb1 tumors after treatment; format: in vivo, mouse; conditions: 15 mg/kg/day, 12 days

| Structure (SMILES) | ΔΨ measured by TMRE staining [1] | 18FBnTP uptake (gamma counter) [2] | cellular OXPHOS (OCR) by respirometry [3] | 18FBnTP uptake in lung tumors post-treatment ([4]; 125 mg/kg/day oral gavage) | 18FBnTP uptake in lung tumors, three independent experiments ([4]; 125 mg/kg/day) | change in 18FBnTP uptake post-treatment to pre-treatment ([4]; 125 mg/kg/day) | cleaved caspase 3 and Ki67 staining (apoptosis, proliferation) [5] | phenformin in lung tumor tissue by mass spectrometry [6] | sensitivity (cell viability) of lung ADC line vs SCC line [7] | sensitivity (cell viability) of lung ADC line vs SCC line [8] | cellular apoptosis after longer treatment ([9]; 4-8 weeks treatment, Ref. 9,19) | sensitivity of Kras/Lkb1 tumors ([9]; Ref. 9) | response of lung SCC tumors from Kras/Lkb1 mice ([9]; Ref. 19,33) | tumor burden (percent of lung area occupied by tumor) ([10]; 15 mg/kg/day oral gavage, 12 days, vs vehicle) | sensitivity of 18FBnTP POS tumors to complex I inhibition ([10]; Kras/Lkb1 mice) | Ki67 positive cells in TTF1+ ADCs [11] | response of CK5+ SCCs (Ki67) [11] |
| --- | --- | --- | --- | --- | --- | --- | --- | --- | --- | --- | --- | --- | --- | --- | --- | --- | --- |
| [H]/N=C(/N)N/C(=N/[H])NCCc1ccccc1 [phenformin] | significantly reduced ΔΨ in a dose dependent manner | significantly reduced | significant reduction of cellular OXPHOS | significant reduction; also recorded: suppresses | significant reduction | significant drop in tracer uptake | no evidence of phenformin induced apoptosis or reduced cell viability; also recorded: does not induced changes in proliferation or apoptosis | significant increase in phenformin in tumors | more sensitive | more sensitive | resulted in cellular apoptosis | sensitive | refractory |  |  |  |  |
| Cc1nc(-c2nc(-c3ccc(OC(F)(F)F)cc3)no2)nn1Cc1cccc(N2CCC(S(C)(=O)=O)CC2)c1 [IACS-010759] |  |  |  |  |  |  |  |  | more sensitive |  |  |  |  | significant reduction in tumor burden | sensitive | significant reduction in Ki67 positive cells | refractory |
